Source: article PMC3462775 (PLoS ONE, 2012)
Entries after “also recorded” stand apart in the source; their conditions may differ.

Legend:
aureolysin = experiment: Staphylococcus aureus aureolysin (3 µg, BioCol GmbH) in 300 µl 20 mM Tris-HCl, 1 mM CaCl2 pH 7.8; settings: 37°C, up to 24 h
elastase = experiment: Pseudomonas aeruginosa elastase (3 µg, Calbiochem) in 300 µl 20 mM Tris-HCl, 1 mM CaCl2 pH 7.8; settings: 37°C, up to 24 h

cleaved bond (aureolysin): R6-L7, 1h; also recorded: S8-A9, 1h
cleaved bond (elastase): R6-L7, 5 h; also recorded: S8-A9, 5 h
Sequence: KKIRVRLSA
not cleaved (aureolysin): remaining unaltered after 24 h of incubation
not cleaved (elastase): resisted degradation by elastase for 24 h
